The values that follow come from US4613613A, “γ-butyrolactone derivatives, process for preparing the same and immunomodulating compositions containing the same as active ingredients” (Mitsubishi Yuka Pharmaceutical Co., Ltd., priority 1983, dated 1986).

Data set [1] can be described thus: Acute Toxicity Test (oral, mortality by 3-days observation). To be noted: mouse, in vivo, ddY male mice. How it is done:
Using ddY strain male mice of 7-8 weeks old, each group consisting of 5 mice, a suspension of the present compound in a 1% tragacanth solution was administered orally. Then, mortality was examined by 3-days observation.

The test system of a further data set is living body. To be noted: background, known immunomodulating agents; cited from earlier work.
The test system of the next data set is adjuvant arthritis. Put plainly: Adjuvant Arthritis Inhibiting Activity (paw volume). The conditions noted are these: measured after 24 days, * p < 0.05 (Ttest). The data set is classed as in vivo, rat (F-344 strain male rats). The procedure:
F-344 strain male rats of 9 weeks old (Nippon Charles River), each group consisting of 8-10 rats, were employed for assessment of adjuvant arthritis inhibiting activity of the present compounds Arthritis was induced by subsutaneous injection of 100 μl of a 6% paraffin oil suspension of Mycobacterium butyricum into hind paw. The test compound was suspended in a 1% tragacanth solution and then administered orally everyday from the day of adjuvant injection up to the 21st day at a volume of 5 ml/kg. After 24 days from the sensitization, paw volume was measured Oral administration of solely a 1% tragacanth solution was applied for control.

Where [2] appears, read: 30 mg/Kg oral everyday to 21st day, Controls: 3.48 ± 0.11 (No. 23), 3.62 ± 0.06 (No. 40), 3.58 ± 0.20 (No. 83).
Where [3] appears, read: 300 mg/Kg oral everyday to 21st day, Controls: 3.48 ± 0.11 (No. 23), 3.62 ± 0.06 (No. 40).

Take `c1ccc([C@H]2CN3CCSC3=N2)cc1` [Levamisole, levamisole, reference compound]: in data set [1], the LD50 at 72 h is < 1000 mg/kg. Besides, in the data set with living body, the “toxicity to a living body (in words)” value is reported as “strong toxicity”. Consider `CC(C)(S)[C@@H](N)C(=O)O` [D-penicillamine], for which, in the data set on living body, the “toxicity to a living body (in words)” value is given as “strong toxicity”. Take `O=C(SCC1C(=O)OCC1c1ccc(Cl)cc1)c1ccccc1` (stereo not drawn) [Compound 74, α-benzoylthiomethyl-β-(p-chlorophenyl)-γ-butyrolactone]: in data set [1], the LD50 at 72 h is > 4000 mg/kg. In the case of `COc1ccc(C2COC(=O)C2CSC2CCCCC2)cc1` (stereo not drawn) [Compound 83, α-cyclohexylthiomethyl-β-(p-methoxyphenyl)-γ-butyrolactone], the Paw volume in the data set on adjuvant arthritis (setting [2]) was 3.00 ± 0.16 mL.

As to `O=C1OCC(c2ccccc2)C1CSCc1ccccc1` (stereo not shown) [Compound 84], the LD50 at 72 h in data set [1] was > 4000 mg/kg. On to `O=C(SC[C@@H]1C(=O)OC[C@H]1c1ccc(Cl)cc1)c1ccc(F)cc1` (relative stereo) [Compound 23], for which the LD50 at 72 h in data set [1] is > 4000 mg/kg. Further, the Paw volume is 2.84 ± 0.25 mL in the data set with adjuvant arthritis (3 mg/Kg oral everyday to 21st day, Control 3.48 ± 0.11); 2.78 ± 0.23 mL with adjuvant arthritis (setting [2]); 3.03 ± 0.25 mL in the data set with adjuvant arthritis (setting [3]). Consider `O=C([O-])c1ccccc1Nc1cc(Cl)ccc1C(=O)[O-].[Na+].[Na+]` [N-(2-carboxyphenyl)-4-chloroanthranilic acid disodium salt], for which the “toxicity to a living body (in words)” value with living body is “strong toxicity”. Take `Cc1ccc(C(=O)SCC2C(=O)OCC2c2ccc(Cl)cc2)cc1` (stereo not drawn) [Compound 1, β-(p-chlorophenyl)-α-(p-methylbenzoylthiomethyl)-γ-butyrolactone]: the 50% lethal dose (LD50) at 72 h in data set [1] was > 4000 mg/kg.

For `CC(=O)SCC1C(=O)OCC1c1ccccc1` (stereo not drawn) [Compound 40, α-acetylthiomethyl-β-phenyl-γ-butyrolactone], the LD50 at 72 h in data set [1] was > 2000 mg/kg. Besides, the Paw volume stood at 3.18 ± 0.17 mL in the data set on adjuvant arthritis (setting [2]) and 3.18 ± 0.18 mL in the data set on adjuvant arthritis (setting [3]).

On to `Cc1ccc(C(=O)SCC2C(=O)OCC2c2ccccc2)cc1` (stereo not shown) [Compound 7], for which the LD50 at 72 h in data set [1] is > 4000 mg/kg.

By LD50 is commonly meant the dose at which mortality reaches 50%. High values mean lower toxicity, low ones greater toxicity.
